In publication PMC10734620, “A blinded in vitro analysis of the intrinsic immunogenicity of hepatotoxic drugs: implications for preclinical risk assessment” (Toxicological Sciences, 2023):
Where two headings read alike, the source gives them in different places.

Experiments:
PBMC = assay: Inhibition of mitogen-induced (PHA-P) PBMC proliferation; format: cell-based, human; conditions: read-out: IC50, inhibition of mitogen-driven PBMC proliferation
Method: Test compounds were provided by GSK to Liverpool as blinded dry powders with a given volume of dimethyl sulfoxide to prepare stock concentrations of 50 mM. Stock concentrations were aliquoted and stored at −80°C until required for experiments. A fresh aliquot was utilized for every experiment. PBMC from 3 healthy donors were used to determine the maximum tolerated concentration of each test compound. PBMC (0.15 × 10^6) were cultured with graded compound concentrations in U-bottomed 96-well plates for 48 h at 37°C, 5% CO2. Phytohemagglutinin (PHA-P; 10 µg/ml) was added to cells for a further 24 h followed by assessment of proliferation through the addition of [^3H]-thymidine (0.5 µCi/well) for the last 16 h. […] The IC50 value was then calculated using 4-parameter logistic curve-fitting model (GraphPad prism 7.0).
Figure 2. Toxicity profiles of training and test compounds. […] PHA-P (10 µg/ml) was added to cells for a further 24 h followed by assessment of proliferation through the addition of [^3H]-thymidine (0.5 µCi/well) for the last 16 h. […] 4-parameter logistic functions were fit to the data and IC50 values were then reported (GraphPad prism 7.0). […] LPB (Liverpool Pharmacology Biobank) represents the unique identifier for PBMC isolated from each consented healthy blood donor for drug safety research. Percentage proliferation for each compound concentration = Proliferation following drug exposure divided by proliferation after cell culture media exposure multiplied by 100.

naïve T-cells = assay: Priming of naïve human T-cells (dendritic cell-T-cell coculture); format: cell-based; conditions: for Number of donors with naïve T-cell priming: 3 study donors; for Proliferation of primed T-cells, drug- vs medium-restimulated wells: 14 days priming, restimulation 48 h at single concentration, 48 wells, [3H]-thymidine; for Proliferation of primed T-cells restimulated with titrated concentrations: 3 drug concentrations (low, medium, high), 48 h
Method: CD14+ monocytes were positively selected using CD14 antibody-conjugated microbeads. This was followed by the depletion of CD25+ cells from the CD14- population and the negative selection of CD45RA+ naïve T-cells. […] Dendritic cells were generated by culturing monocytes with a cocktail of GM-CSF (800 U/ml) and IL-4 (800 U/ml) in culture media for 6 days. Both cytokines were purchased from Peprotech (New Jersey). A maturation cocktail of TNF-α (25 ng/ml) and LPS (1 µg/ml) was added for 16 h before establishing the T-cell priming culture. Dendritic cells (8 × 10^3 per well) were cultured with naïve T-cells (1 × 10^5 per well) and the test compounds in a 96-well U-bottom tissue culture plate for 14 days at 37°C, 5% CO2. Cells were then washed extensively to remove unbound drug and cultures were restimulated with test compound or medium control (48 wells) for 48 h. Subsequent experiments were performed with training compounds to investigate the dose-dependent stimulation of naïve T-cells. In these experiments, T-cells were cultured with 3 concentrations of the test compound and medium (negative control) during the restimulation step. T-cell proliferative responses were determined by addition of [^3H]-thymidine (0.5 µCi/well) for the final 16 h of the culture period. Plates were harvested and counted as described above. […] Student’s t test was performed to determine statistical significance of T-cell proliferation when comparing medium- and drug-treated cultures (*p ≤ .05; **p ≤ .005; ***p < .001).
Figure 3. Naïve T-cell priming with training compounds. CD14+ monocytes were utilized to generate dendritic cells with a cocktail of GM-CSF (800 U/ml) and IL-4 (800 U/ml) in culture media for 6 days. […] A, Nitroso sulfamethoxazole. B, Vancomycin. C, Bandrowski’s base. D, Carbamazepine. E, Piperacillin. The degree of naïve T-cell priming was determined by comparing the counts per minutes (cpm) of drug and media-treated cultures using a beta counter. Student’s t test was performed to determine statistical significance (*p ≤ .05; **p ≤ .005; ***p < .001). Each data point represents T-cells proliferation in individual well of a 96 U-bottomed plate.
Figure 4. Dose-dependent stimulation of primed T-cells with training compound. […] Primed cells were washed extensively and then restimulated with 3 drug concentrations (low, medium, and high) for 48 h followed by determination of T-cell activation by [^3H]-thymidine incorporation. Each data point represents T-cells proliferation in individual well of a 96 U-bottomed plate.
Figure 5. Naïve T-cell priming with test compounds. […] B, Dacarbazine. […] F, Iproniazid. G, Mepivacaine. H, Nevirapine. […] J, Phenoxybenzamine. Primed cells were washed extensively and then restimulated medium or drug for 48 h followed by determination of T-cell activation by [^3H]-thymidine incorporation. Each data point represents T-cells proliferation in individual well of a 96 U-bottomed plate.

T-cell clones = assay: Generation and drug-specificity testing of T-cell clones; format: cell-based, human; conditions: for Detection of drug-responsive T-cell clones / T-cell clones responsive to drug (SI ≥ 2): 3 donors; for Detection of drug-responsive T-cell clones: SI ≥ 2; for Overall immunogenicity call in T-cell assays: priming assay and/or T-cell clones; for Dose-dependent proliferation of drug-responsive T-cell clones: titrated concentrations, 48 h, EBV-transformed B-cells; for T-cell clones responsive to drug (SI ≥ 2): training compounds, maximum of 216 clones per donor
Method: To establish T-cell lines, PBMC from 3 healthy HLA-typed (Table 2) donors were cultured with individual test compounds (at concentrations not associated with inhibition of mitogen-driven PBMC proliferation; see Figure 2 for individual concentrations) for 14 days. Medium was supplemented with IL-2 (50 U/ml; Peprotech, New Jersey) to maintain drug-specific T-cell expansion. T-cell clones were generated from the T-cell lines by serial dilution and repetitive mitogen stimulation ([Schnyder et al., 2000]). T-cells (0.3–3 cells/well) were cultured with irradiated allogenic PBMC (5 × 10^4/well) and PHA-P (1 µg/ml) in IL-2 containing medium. The medium was supplemented with fresh IL-2 on days 6, 9 and every 2 days thereafter. Growing cultures were expanded further with a second round of mitogen stimulation and tested for drug-specific T-cell proliferation on day 28. Cloned T-cells (5 × 10^4/well) were cultured with irradiated autologous EBV-transformed B-cells (1 × 10^4/well) and drug in duplicate wells for 48 h. Wells containing medium served as a negative control. Proliferation was measured by the addition of [^3H]-thymidine followed by scintillation counting. T-cell clones with SI ≥ 2 were considered drug-responsive and expanded using irradiated allogeneic PBMC for dose-response studies and assessment of CD4/8 phenotyping.
Proliferation was measured by the addition of [^3H]-thymidine as described above.
T-cell clones were washed with FACS buffer and CD phenotype determined using flow cytometry. Cells (10 000) were acquired using a FACSCanto II (BD Biosciences) and data analyzed by FACSDiva software.
Figure 6. Generation of training compound (nitroso sulfamethoxazole, vancomycin, and Bandrowski’s base)-specific T-cell clones. PBMC from 3 healthy donors were cultured with training compounds and supplemented with IL-2 (50 U/ml) for 14 days. T-cell clones were generated from the T-cell lines by serial dilution and repetitive mitogen stimulation. T-cells (0.3–3 cells/well) were stimulated with irradiated allogenic PBMC (5 × 10^4/well) and phytohemagglutinin (1 µg/ml). Well growing cultures were subjected to a second round of expansion then tested for drug-specific T-cell proliferation. Proliferation was measured by the addition of ^3H-thymidine followed by scintillation counting. A–C, Initial specificity test for nitroso sulfamethoxazole, vancomycin, and Bandrowski’s base clones. T-cell clones showing stimulation index, SI ≥ 2 were considered drug-responsive and expanded and used in dose-response studies. SI = Drug-induced T-cell proliferation divided by T-cell proliferation in cell culture media. […] T-cell activation was determined using [^3H]-thymidine incorporation.
Figure 7. […] PBMC from 3 healthy donors were cultured with test compounds and supplemented with IL-2 (50 U/ml) for 14 days. T-cell clones were generated from the T-cell lines by serial dilution and repetitive mitogen stimulation. T-cells (0.3–3 cells/well) were stimulated with irradiated allogenic PBMC (5 × 10^4/well) and phytohemagglutinin (1 µg/ml). Well growing cultures were subjected to a second round of expansion then tested for drug-specific T-cell proliferation. Proliferation was measured by the addition of ^3H-thymidine followed by scintillation counting. […] T-cell activation was determined using [^3H]-thymidine incorporation.

[1] = parameters: method as in Sakatis et al., 2012; Schofield et al., 2021; conditions: Positive = above the threshold of concern; assays not listed negative; ref Sakatis et al., 2012; Schofield et al., 2021; cited from earlier work
[2] = PBMC from 3 healthy donors, compound 48 h, then PHA-P 10 µg/ml 24 h, [3H]-thymidine
[3] = Homo sapiens, PBMC, PBMC from 3 healthy donors, compound 48 h, then PHA-P 10 µg/ml 24 h, [3H]-thymidine

Compound | IC50 (PBMC; [2]) | Number of donors with naïve T-cell priming (naïve T-cells) | Proliferation of primed T-cells, drug- vs medium-restimulated wells (naïve T-cells) | Detection of drug-responsive T-cell clones (T-cell clones) | Dose-dependent proliferation of drug-responsive T-cell clones (T-cell clones) | Proliferation of primed T-cells restimulated with titrated concentrations (naïve T-cells) | T-cell clones responsive to drug (SI ≥ 2) (T-cell clones) | also measured
NC(=O)N1c2ccccc2C=Cc2ccccc21 [Carbamazepine] | 260 µM | 1 | not observed | not detected | – | – | – | IC50 (PBMC; PBMC from 3 healthy donors, compound 48 h, then PHA-P 10 µg/ml 24 h, [3H]-thymidine, listed as carbamazepine): ≥ 50 µM; Proliferation of primed T-cells on restimulation at highest concentration (naïve T-cells; restimulated at 200 µM): weakly significant proliferative response
CC[C@H]1OC(=O)[C@H](C)[C@@H](O[C@H]2C[C@@](C)(OC)[C@@H](O)[C@H](C)O2)[C@H](C)[C@@H](O[C@@H]2O[C@H](C)C[C@H](N(C)C)[C@H]2O)[C@](C)(O)C[C@@H](C)C(=O)[C@H](C)[C@@H](O)[C@]1(C)O [Erythromycin] | 160 µM | – | – | – | dose-dependent proliferative responses | – | – | IC50 (PBMC; PBMC from 3 healthy donors, compound 48 h, then PHA-P 10 µg/ml 24 h, [3H]-thymidine, listed as erythromycin): ≥ 50 µM; Number of drug-responsive T-cell clones (T-cell clones; donor 2): 3; T-cell clones stimulated to proliferate, donor 2 (T-cell clones; donor 2, maximum of 144 clones per donor): 2%; Detection of drug-responsive T-cell clones, other donors (T-cell clones; donors other than donor 2): not detected; CD phenotype of drug-responsive T-cell clones (T-cell clones; flow cytometry CD4/CD8): CD4+; Overall immunogenicity call in T-cell assays (T-cell clones): potentially immunogenic; Routine Assays that are Positive (GSK) [1]: Reactive metabolite
Cc1cc(NS(=O)(=O)c2ccc(N=O)cc2)no1 [Nitroso sulfamethoxazole, 4-Nitrososulfamethoxazole] | 250 µM | 3 | Proliferation of primed T-cells was observed | detected from each donor | proliferate in a dose-dependent manner | stimulated to proliferate in the presence of all 3 concentrations | 10.0% | IC50 (PBMC; PBMC from 3 healthy donors, compound 48 h, then PHA-P 10 µg/ml 24 h, [3H]-thymidine, listed as nitroso sulfamethoxazole): ≥ 50 µM
CN(C)CCOC(c1ccccc1)c1ccccc1 [Diphenhydramine] | – | – | – | – | – | – | – | Overall immunogenicity call in T-cell assays (T-cell clones): no false positives
NC1=CC(=N\c2ccc(N)cc2)/C(N)=CC/1=N/c1ccc(N)cc1 [Bandrowski's base] | – | 3 | Proliferation of primed T-cells was observed | detected from each donor | proliferate in a dose-dependent manner | stimulated to proliferate in the presence of all 3 concentrations | 13% | IC50 (PBMC; [3]): 5 µM
CCN1CCN(C(=O)N[C@@H](C(=O)N[C@@H]2C(=O)N3[C@@H]2SC(C)(C)[C@@H]3C(=O)O)c2ccccc2)C(=O)C1=O [Piperacillin] | – | – | not observed | not detected | – | not detected | – | IC50 (PBMC; [3]): 1000 µM
CN[C@H](CC(C)C)C(=O)N[C@H]1C(=O)N[C@@H](CC(N)=O)C(=O)N[C@H]2C(=O)N[C@H]3C(=O)N[C@H](C(=O)N[C@H](C(=O)O)c4cc(O)cc(O)c4-c4cc3ccc4O)[C@H](O)c3ccc(c(Cl)c3)Oc3cc2cc(c3O[C@@H]2O[C@H](CO)[C@@H](O)[C@H](O)[C@H]2O[C@H]2C[C@](C)(N)[C@H](O)[C@H](C)O2)Oc2ccc(cc2Cl)[C@H]1O [Vancomycin] | – | 3 | Proliferation of primed T-cells was observed | detected from each donor | proliferate in a dose-dependent manner | stimulated to proliferate in the presence of all 3 concentrations | 9.7% | IC50 (PBMC; Homo sapiens, PBMC): 2000 µM
